Legend:
HL60 cell line = assay: WST-1 cell viability assay, 24 hours treatment, HL60; format: cell-based, human; conditions: HL60, 24 hours; for cytotoxicity / %-viability: 0.001-100 μM, WST-1; for cell survival dose/response curve in the mitochondria metabolism assay (WST-1): FIG. 1
Method: (§1) The cell lines HL60 and MOLM-13 were treated with the various compounds for 24 hours. The cell viability assay WST-1 was used to determine the cytotoxic effect and to generate the dose-response curves and IC50 values.
(§2) The two human cell lines HL60 and MOLM-13 reflect the aggressive blood cancer acute myeloid leukaemia (AML). These cell lines (obtained from the American Type Culture Collection, ATCC) were cultured in RPMI 1640, 2 mM L-Glutamine, 50 UmL^−1 penicillin/streptomycin (Sigma Aldrich) and 10% fetal bovine serum (Biowest) and incubated in humidified atmosphere at a temperature of 37° C. under 5% CO2. The cells (2×10^5 cells×mL^−1) were treated with various concentrations (0.001 μM→100 μM) of the compounds for a period of 24 hours. Metabolic cell activity (i.e. cell viability) was measured using the WST-1 cell proliferation agent (Roche) and read on a […] plate reader (Infinite 200 Pro, Tecan). Selected cell samples were analysed after nuclear staining with Hoechst to determine apoptotic nuclear fragmentation.

MOLM-13 cell line = assay: WST-1 cell viability assay, 24 hours treatment, MOLM-13; format: cell-based, human; conditions: MOLM-13, 24 hours; for cytotoxicity / %-viability: 0.001-100 μM, WST-1; for cell survival dose/response curve in the mitochondria metabolism assay (WST-1): FIG. 1
Method: as §1, §2

melting point [°C] | Compound | cytotoxicity / %-viability (HL60 cell line) | cell survival dose/response curve in the mitochondria metabolism assay (WST-1) (HL60 cell line) | cytotoxicity / %-viability (MOLM-13 cell line) | cell survival dose/response curve in the mitochondria metabolism assay (WST-1) (MOLM-13 cell line)
102.7 | COc1c(C)c(OC)c([N+](=O)[O-])c(-c2ccccc2)c1O [Compound 7, 3,5-dimethoxy-4-methyl-6-nitrobiphenyl-2-ol] | minor decrease in %-viability | more limited dose/response curves | minor decrease in %-viability | more limited dose/response curves
 | COc1cccc(-c2c(O)c(OC)c(C)c(OC)c2[N+](=O)[O-])c1 [Compound 7a, 3,3′,5-trimethoxy-4-methyl-6-nitro-[1,1′-biphenyl]-2-ol] |  | rapid decrease in cell survival |  | rapid decrease in cell survival
 | COc1c(C)c(OC)c(O)c(-c2ccccc2)c1N [Compound 8, 6-amino-3,5-dimethoxy-4-methyl-[1,1′-biphenyl]-2-ol] | substantial drop in %-viability | rapid decrease in cell survival | substantial drop in %-viability | rapid decrease in cell survival
 | COc1cccc(-c2c(N)c(OC)c(C)c(OC)c2O)c1 [Compound 8a, 6-amino-3,3′,5-trimethoxy-4-methyl-[1,1′-biphenyl]-2-ol] |  | rapid decrease in cell survival |  | rapid decrease in cell survival
 | COc1c(C)c(OC)c(OC(C)=O)c(-c2ccccc2)c1NC(C)=O [Compound 9, 6-acetamido-3,5-dimethoxy-4-methyl-(1,1′-biphenyl)-2-yl acetate] | weaker cytotoxicity | more limited dose/response curves | weaker cytotoxicity | more limited dose/response curves
 | COc1cccc(-c2c(NC(C)=O)c(OC)c(C)c(OC)c2OC(C)=O)c1 [Compound 9a, 6-acetamido-3,3′,5-trimethoxy-4-methyl-(1,1′-biphenyl)-2-yl acetate] |  | more limited dose/response curves |  | more limited dose/response curves
 | COc1c(C)c(OC)c2c(c1OC(C)=O)c1ccccc1n2C(C)=O [Compound 10, 9-acetyl-1,3-dimethoxy-2-methyl-9H-carbazol-4-yl acetate] | did not show any influence on the cytotoxicity | rapid decrease in cell survival | did not show any influence on the cytotoxicity | rapid decrease in cell survival
 | COc1c(C)c(OC)c2[nH]c3ccccc3c2c1O [Compound 11, 1,3-dimethoxy-2-methyl-9H-carbazol-4-ol] | major cytotoxicity | rapid decrease in cell survival | major cytotoxicity | rapid decrease in cell survival
 | COC1=C(C)C(=O)c2[nH]c3ccccc3c2C1=O [Compound 12, 3-methoxy-2-methyl-1-carbazole-1,4 (9H)-dione] |  | more limited dose/response curves |  | more limited dose/response curves
 | COC1=C(C)C(C)(O)c2[nH]c3ccccc3c2C1=O (stereo not drawn) [Compound 13, 1-hydroxy-3-methoxy-1,2-dimethyl-1,9-dihydro-4H-carbazol-4-one, reference compound] | not to exhibit cytotoxicity | more limited dose/response curves | not to exhibit cytotoxicity | more limited dose/response curves

From patent US20240299349A1, “TREATMENT OR PREVENTION OF LEUKAEMIA” (VESTLANDETS INNOVASJONSSELSKAP AS, priority 2019, published 2024)
